Experimental data as given in patent publication US20240016785A1 (Delta 4 GmbH, priority 2020, published 2024).

Experiments:
[1] = tested on: adriamycin induced nephropathy in BALB/c mice
Description: Control mice were injected with 0.9% saline. At least 6 mice were analyzed per group. Mice were monitored daily for signs of pain, altered movement, or reduced food uptake and sacrificed by cervical dislocation. Tested drugs were administered per oral administration via pre-mixed chow at drug doses based on literature research.
Urinary albumin levels were assessed by ELISA, urinary total protein and urinary creatinine levels were measured on the Roche Cobas system, using routine laboratory kits. Urinary protein/creatinine (UPCR) ratio and urinary albumin/creatinine ratio (UACR) were assessed at different time points. Weight and physical fitness scores were monitored on a daily basis. At the end of the experiment, tissue sections, plasma and urine samples were collected and stored until further analysis.
Repeated measures ANOVA across timepoints was calculated using the R statistical software framework.

[2] = tested on: podocytes of animals with adriamycin induced nephropathy; details: animals treated with clopidogrel as in Example 2, vs untreated adriamycin nephropathy animals
[3] = tested on: Adriamycin nephropathy in Balb/c mice
Description: Adriamycin (Doxorubicin; Sigma, D1515-10 mg) was diluted in ddH2O. To induce FSGS, a dose of 10.5 mg/kg mouse was injected i.v. into the tail vein using 27G needles, i. e. a total volume of 200 μl volume per 25 g mouse.
For tail vein injection, mice were anaesthetized using Ketanest (Pfizer, 25 mg/ml vials) and Rompun (Bayer, 20 mg/ml injection solution). A final mix of 12.5 mg/ml Ketanest and 0.25% Rompun in 0.9% NaCl solution was prepared and 200 μl/25 g mouse were injected.
Female Balb/c mice were obtained from the animal breeding facility of the Medical University (Abteilung kir Labortierkunde, Himberg, Austria). 12-16 weeks old animals with a weight >20 g were used for the experiments and adjusted for weight and age. Animals were allowed acclimatization of at least 7 days. Animals were marked by ear or toe clip codes to allow identification. Adriamycin nephropathy in Balb/c mice is the most commonly used animal model for preclinical FSGS studies and shares the central features with human FSGS.
Standard commercial chow from ssniff (ssniff Spezialdiaten GmbH, Soest, Germany) contained crude protein (19%), crude fat (3.3%), crude fiber (4.9%), crude ash (6.4%), starch (36.5%), sugar (4.7%). […] All animals were allowed to eat ad libitum assuming a daily average uptake of ˜4 grams/mouse (according to animal care guideline of the Johns Hopkins University,
Spot urine was collected every week and Creatinine and protein levels were measured.
Urinary albumin was measured by ELISA. 96-well plates were coated over night at 4° C. with 100 μl antibody solution Anti Mouse Serum Albumin antibody (Abcam ab34807, Lot GR3242102-4; diluted 1:2,000) in coating buffer (3.7 g NaHCO3; 0,64 g Na2CO3; 1L distilled water). The remaining procedure was performed at room temperature. Wells were washed 3× with HBSS (Sigma H8264-500 ML) +0,05% Tween-20 (Bio-Rad, #1706531) and blocked in ELISA/ELISPOT Diluent (eBioscience, 00-4202-56) and washed again for 3×. Samples and standard curve were both diluted in ELISA/ELISPOT diluent were incubated for 2 h, followed by 3 wash steps with HBSS+0,05% Tween-20, incubated with HRP antibody Anti Mouse Serum Albumin antibody (Abcam ab19195, Lot GR3242102-4; diluted 1:100,000) for 1 h, followed by 5 wash steps. Reaction was developed with TMB One Solution (Promega, G7431) and stopped with 2N H2SO4. Standard curves were generated with Mouse Albumin (Merck/Sigma, 126674-25MG). 450 nm absorbance was measured on an Epoch Microplate reader (BioTek) using GenS 1.10 software.
At the end of the experiment kidneys were removed, embedded in paraffin and PAS (Periodic acid-Schiff) staining was performed. Histology was thoroughly evaluated and the amount of sclerotic glomeruli and protein casts was quantified.
R version 4.0.2 was used for statistical analysis. Student's t-test was used for comparing UPCR and UACR values between samples from treated and control mice for each individual time point and to assess differences in histological parameters. Repeated measures ANOVA was performed to analyse the drug's impact on UPCR and UACR over time using the respective functions in the rstatix package (V0.6.0). ggplot2 (V3.3.2) and ggpubr (V0.4.0) packages were used for generating the graphical visualizations.
In two independent experiments (Experiment 1 and 2), 34 female Balb/c mice were injected with 10.5 mg/kg adriamycin into the tail vein (see table 2). […] Spot urine was collected weekly, kidneys were harvested at sacrifice. 10.5 mg/kg Adriamycin were injected into the tail vein. […] Urine was collected and weight was measured weekly. The experiments lasted about 5 weeks.

COC(=O)[C@H](c1ccccc1Cl)N1CCc2sccc2C1 [Clopidogrel, (S)-Methyl-(2-chlorphenyl)-2-(6,7-dihydro-4H-thieno[3,2-c]pyridin-5-yl)acetate]
UPCR at 37 days after start, compared with Ctrl mice ([1]; FIG. 1, mice could recover from Adriamycin induced FSGS in this experiment): reduced to similar levels
effect of drug administration on UPCR, repeated measures ANOVA across timepoints ([1]; adriamycin approx. 9 mg/kg, drug via pre-mixed chow, p=0.009 (drug)): significant
podocyte injury (podocytopathy) by electron microscopy [2]: significantly reduced podocyte injury
glomerular sclerosis index (sclerotic glomeruli of all glomeruli), highest reached in any sample ([3]; PAS staining, untreated control group went up to 35%): ≤ 4%
reduction of UPCR (urinary protein to creatinine ratio) ([3]; both experiments together, average across all time points, chow + 200 mg/kg Clopidogrel (~25-30 mg/kg mouse/day) from 48 h after adriamycin 10.5 mg/kg i.v., vs control mice): 49%
reduction of UACR (urinary albumin to creatinine ratio) ([3]; both experiments together, average across all time points, chow + 200 mg/kg Clopidogrel, vs control mice): 61%
average histopathological damage score ([3]; clopidogrel-treated group, control average 2.67, p=0.038): 0.86
severe disease (glomerular sclerosis) ([3]; histopathology, FIG. 8A, B): completely prevented severe disease
reduction of ADR-associated weight loss ([3]; overall, both experiments, weight measured weekly, vs control mice): 48%
tubular ectasia, determined by protein cylinders in PAS staining ([3]; vs control group, FIG. 8C): strongly ameliorated
weight loss compared to control mice ([3]; weekly over the course of the experiments): less weight loss
